# Key:
# [1] = tested on: intraocular pressure in monkeys; assay: Intraocular pressure lowering effect by perfusion in the anterior chamber in monkeys (Example 1, 59 ng/mL); type: in vivo, cynomolgus monkeys; settings: for IOP decrease as compared with changes in IOP of the control after vehicle perfusion: 59 ng/mL, anterior chamber perfusion 50 μL/min for 1 hour, n=2
# Protocol: The intraocular pressure lowering effect of 15-keto acid of latanoprost (13,14-dihydro-15-keto-17-phenyl-18,19,20-trinor-PGF2α) by perfusion in the anterior chamber in monkeys was investigated.
# Male cynomolgus monkeys (body weight: 4.5-6.5 kg) were used. These monkeys were housed individually in cages for monkeys in a room which was maintained at room temperature of 24±1° C., relative humidity of 55±10%, ventilation of about 12 times/hour and a 12-hour light-dark cycle (fluorescent lighting: 8:00 a.m. to 8:00 p.m). The animals were given solid food for monkeys (PS, Oriental Yeast Co., Ltd.), vegetables and fruits, and allowed free access to tap water from an automatic dispenser. The healthy animals without abnormalities in the anterior segment of the eye were used in this study.
# In the present study the solution containing 59 ng/mL of 15-keto acid of latanoprost was adjusted with commercially available intraocular perfusate (Opeguard-MA, Lot P-464, Senju Pharmaceutical Co., Ltd.). The control solution (vehicle) was the intraocular perfusate.
# The animals were anesthetized by the injection intramuscularly with 5.0-7.5 mg/kg of ketamine hydrochloride (Ketalar®50, Sankyo Co., Ltd.), and restrained in a supine position. In operation and perfusion of the dosing solution in the anterior chamber, the anesthesia was maintained by intramuscular injection of 5 mg/kg of ketamine at interval of 30 minutes. […]
# After the ocular surface of monkeys was anesthetized by instillation of 0.4% oxybuprocaine hydrochloride (Benoxil® 0.4% solution, Santen Pharmaceutical Co., Ltd.) under i.m. systemic anesthesia with 5 mg/kg of ketamine hydrochloride, IOP was measured with an applanation pneumatonograph (Alcon Japan Ltd.). IOP was measured before perfusion of the test substance and 2 and 4 hours after perfusion (3 and 5 hours, respectively, after the start of the perfusion of the test substance). The mean value of the IOP measured twice at 30-minute interval before perfusion was used as IOP before perfusion of the test substance. […]
# [2] = tested on: intraocular pressure in monkeys; assay: Effects on intraocular pressure by intra-anterior chamber perfusion with a lower dosage in monkeys (Example 2, 2 ng/mL); type: in vivo, cynomologus monkeys; settings: for IOP: perfusion 40 μL/min for 1 hour; for IOP / Difference in IOP between both treatments (IOP in 15-keto acid of latanoprost treatment minus IOP in vehicle treatment) / ΔIOP: Changes of IOP from pre-treatment value: mean ± S.E. of 7 animals
# Protocol: The effects on intraocular pressure by intra-anterior chamber perfusion with a lower dosage of 13,14-dihydro-15-keto-17-phenyl-18,19,20-trinor-PGF2 α (15-keto acid of latanoprost) were investigated in monkeys. One hour perfusion in the anterior chamber with 15-keto acid of latanoprost at the concentration (2 ng/mL) was carried out.
# The solution containing 15-keto acid of latanoprost at 2 ng/mL was prepared with a commercially available intraocular perfusate (Opeguard MA, Senju Pharmaceutical Co. Ltd.) as a vehicle.
# Seven male cynomologus monkeys (Body weight: 3.9-6.0 kg) purchased from Kasyo Co., Ltd. were used. These monkeys were housed individually in cages in a room which was maintained at room temperature of 24±1° C., relative humidity of 55±10%, ventilation rate of about 12 times/hour and 12-hour light-dark cycle (fluorescent lighting: 8:00 to 20:00). The animals were given food pellets for monkeys (PS, Oriental Yeast Co., Ltd.), vegetables and fruits once a day, and allowed free access to tap water from an automatic dispenser. The healthy animals without abnormalities in the anterior segment of the eye were used in this study.
# The animals were anesthetized by an intramuscular injection of 5.0-7.5 mg/kg of katamine hydrochloride (Ketalar 50, Sankyo Co., Ltd.), and restrained in a supine position. Two 30 G injection needles (one for infusion of the dosing solution and the other for discharge, Becton Dickinson and Co.) connected to polyethylene cannula (PE10, Becton Dickinson and Co.) were inserted into the anterior chamber from the temporal corneal ring of the eye ball. The anterior chamber was perfused with the 15-keto acid of latanoprost solution or the vehicle at a rate of 40 μL/min through the cannula for 1 hour using a syringe pump (Model 100, KD Scientific Inc.). During the perfusion, the anesthesia was maintained by intramuscular injection of 5.0 mg/kg ketamine hydrochloride every 20 minutes.
# The animals were systemically anesthetized by an intramuscular injection of 5.0-7.5 mg/kg of ketamine hydrochloride (Ketalar 50, Sankyo Co., Ltd.), and the ocular surface was anesthetized by a instillation of 0.4% oxybuprocaine hydrochloride (Benoxil 0.4% solution, Santen Pharmaceutical Co., Ltd.). The animals were fixed in a supine position, and the intraocular pressure was measured by use of a pneumatonometer (Model 30 Classic, Mentor O & O.) before, and 3 and 5 hours after starting the perfusion (2 and 4 hours after stopping the perfusion, respectively).
# The animals were used two times. The same eye of each animal was used for both treatments in a crossover way with a recovery period for at least 12 days.
# The data were statistically analyzed with Student's t-test or paired t-test. P values less than 0.05 were considered to be statistically significant.
# [3] = 2 ng/mL, 3 hours after starting perfusion
# [4] = 2 ng/mL, 5 hours after starting perfusion
compound,measurement,setting,value
"O=C(O)CCC/C=C\C[C@@H]1[C@@H](CCC(=O)CCc2ccccc2)[C@H](O)C[C@@H]1O [15-keto acid of latanoprost, 13,14-dihydro-15-keto-17-phenyl-18,19,20-trinor-PGF2α]",IOP decrease as compared with changes in IOP of the control after vehicle perfusion,[1]; 3 hours after the start of perfusion,2.8 mmHg
same,IOP decrease as compared with changes in IOP of the control after vehicle perfusion,[1]; 5 hours after the start of perfusion,2.3 mmHg
same,effect on intraocular pressure (in words),"[1]; perfusion in the anterior chamber, monkeys",intraocular pressure was lowered
same,effect on intraocular pressure (in words),"[2]; 2 ng/mL solution, intra-anterior chamber perfusion",significant reduction in the intraocular pressure
same,IOP,[2]; [3],23.1 ± 1.3 mmHg
same,IOP,[2]; [4],24.4 ± 0.7 mmHg
same,IOP,"[2]; 2 ng/mL, before perfusion",24.1 ± 0.8 mmHg
same,Difference in IOP between both treatments (IOP in 15-keto acid of latanoprost treatment minus IOP in vehicle treatment),[2]; [3],−2.9 ± 1.1 mmHg
same,ΔIOP: Changes of IOP from pre-treatment value,[2]; [3],−1.0 ± 0.7 mmHg
same,lowering of intraocular pressure as compared with the pre-treatment value,"[2]; 2 ng/mL, 3 hours after starting the perfusion",1.0 mmHg
same,Difference in IOP between both treatments (IOP in 15-keto acid of latanoprost treatment minus IOP in vehicle treatment),[2]; [4],0.0 ± 1.0 mmHg
same,ΔIOP: Changes of IOP from pre-treatment value,[2]; [4],0.3 ± 0.7 mmHg
same,Difference in IOP between both treatments (IOP in 15-keto acid of latanoprost treatment minus IOP in vehicle treatment),"[2]; 2 ng/mL, before perfusion",0.7 ± 1.1 mmHg
